Measurements taken from patent US10533010B2, “Substituted indole Mcl-1 inhibitors” (Vanderbilt University, priority 2014, dated 2020).

target: recombinant Mcl-1 (residues 172-327) (Homo sapiens (Human), UniProt Q07820); test: Fluorescence polarization anisotropy competition assay (FITC-Bak or FITC-Bim BH3 peptide) with Mcl-1; assay type: binding; conditions: not given
Sequence (Q07820 172-327): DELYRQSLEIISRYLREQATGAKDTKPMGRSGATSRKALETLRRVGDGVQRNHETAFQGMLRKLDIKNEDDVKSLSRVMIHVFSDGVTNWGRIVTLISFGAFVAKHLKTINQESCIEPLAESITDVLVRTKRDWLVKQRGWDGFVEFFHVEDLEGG

Compound	Ki [nM]
Cc1cc(OCCCc2c(C(=O)NCC(=O)O)[nH]c3ccccc23)cc(C)c1Cl [I-3, (3-(3-(4-chloro-3,5-dimethylphenoxy)propyl)-1H-indole-2-carbonyl)glycine]	501 to 999
COC(=O)CNC(=O)c1[nH]c2ccccc2c1CCCOc1cc(C)c(Cl)c(C)c1 [I-2, methyl (3-(3-(4-chloro-3,5-dimethylphenoxy)propyl)-1H-indole-2-carbonyl)glycinate]	1000 to 9990

same assay, conditions: Table 2; Ki bins given in nM; FITC-Bak or FITC-Bim peptide competition; Ki converted from IC50; read-out: Ki for Inhibition of Mcl-1

Compound	Ki [nM]
Cc1cc(OCCCc2c(C(=O)N[C@H]3CCCC[C@H]3C(=O)O)[nH]c3c(-c4c(C)nn(C)c4C)cccc23)cc(C)c1Cl [I-316, (1R,2S)-2-(3-(3-(4-chloro-3,5-dimethylphenoxy)propyl)-7-(1,3,5-trimethyl-1H-pyrazol-4-yl)-1H-indole-2-carboxamido)cyclohexane-1-carboxylic acid]	< 50
Cc1cc(OCCCc2c3n(c4c(-c5c(C)nn(C)c5C)cccc24)CCCN(Cc2ccc(N4CCCC4)c(C(=O)O)c2)C3=O)cc(C)c1Cl [I-78, 5-((11-(3-(4-chloro-3,5-dimethylphenoxy)propyl)-1-oxo-7-(1,3,5-trimethyl-1H-pyrazol-4-yl)-4,5-dihydro-1H-[1,4]diazepino[1,2-a]indol-2(3H)-yl)methyl)-2-(pyrrolidin-1-yl)benzoic acid]	101 to 299
Cc1cc(OCCCc2c(C(=O)N(C)Cc3ccc(C(=O)O)o3)n(C)c3c(-c4c(C)nn(C)c4C)cccc23)cc(C)c1Cl [I-269, 5-((3-(3-(4-chloro-3,5-dimethylphenoxy)propyl)-N,1-dimethyl-7-(1,3,5-trimethyl-1H-pyrazol-4-yl)-1H-indole-2-carboxamido)methyl)furan-2-carboxylic acid]	101 to 299
Cc1cc(OCCCc2c(C(=O)NCc3cccc(C(=O)NS(=O)(=O)c4ccccc4C#N)c3)[nH]c3c(-c4c(CN5CCCC5)nn(C)c4C)cccc23)cc(C)c1Cl [I-35, 3-(3-(4-chloro-3,5-dimethylphenoxy)propyl)-N-(3-(((2-cyanophenyl)sulfonyl)carbamoyl)benzyl)-7-(1,5-dimethyl-3-(pyrrolidin-1-ylmethyl)-1H-pyrazol-4-yl)-1H-indole-2-carboxamide]	< 50
Cc1cc(OCCCc2c(C(=O)NCCC(=O)O)[nH]c3c(-c4c(C)n[nH]c4C)cccc23)cc(C)c1Cl [I-23, 3-(3-(3-(4-chloro-3,5-dimethylphenoxy)propyl)-7-(3,5-dimethyl-1H-pyrazol-4-yl)-1H-indole-2-carboxamido)propanoic acid]	< 50
Cc1cc(OCCCc2c(C(=O)NCc3cccc(C(=O)O)c3)[nH]c3c(-c4c(CN5CCCC5)nn(C)c4C)cccc23)cc(C)c1Cl [I-34, 3-((3-(3-(4-chloro-3,5-dimethylphenoxy)propyl)-7-(1,5-dimethyl-3-(pyrrolidin-1-ylmethyl)-1H-pyrazol-4-yl)-1H-indole-2-carboxamido)methyl)benzoic acid]	< 50
Cc1cc(OCCCc2c3n(c4c(-c5c(C)nn(C)c5C)c(Cl)ccc24)CCCN(c2ccc(C(=O)O)c(C(F)(F)F)c2)C3=O)cc(C)c1Cl [I-93, 4-(8-chloro-11-(3-(4-chloro-3,5-dimethylphenoxy)propyl)-1-oxo-7-(1,3,5-trimethyl-1H-pyrazol-4-yl)-4,5-dihydro-1H-[1,4]diazepino[1,2-a]indol-2(3H)-yl)-2-(trifluoromethyl)benzoic acid]	< 50
Cc1cc(OCCCc2c(C(=O)NCC(=O)NS(=O)(=O)c3ccc4ccccc4c3)[nH]c3ccccc23)cc(C)c1Cl [I-7, 3-(3-(4-chloro-3,5-dimethylphenoxy)propyl)-N-(2-(naphthalene-2-sulfonamido)-2-oxoethyl)-1H-indole-2-carboxamide]	101 to 299
Cc1cc(OCCCc2c(C(=O)N(Cc3ccc(C(F)(F)F)cc3)c3ccc(S(N)(=O)=O)cn3)[nH]c3ccccc23)cc(C)c1Cl [I-49, 3-(3-(4-chloro-3,5-dimethylphenoxy)propyl)-N-(5-sulfamoylpyridin-2-yl)-N-(4-(trifluoromethyl)benzyl)-1H-indole-2-carboxamide]	101 to 299

Other lines, results leading:

Ki [nM]	Compound
< 50	Cc1cc(OCCCc2c3n(c4c(-c5c(C)nn(C)c5C)c(Cl)ccc24)CCCN(c2cc(C(=O)O)cc(C(F)(F)F)c2)C3=O)cc(C)c1Cl [I-222, 3-(8-chloro-11-(3-(4-chloro-3,5-dimethylphenoxy)propyl)-1-oxo-7-(1,3,5-trimethyl-1H-pyrazol-4-yl)-4,5-dihydro-1H-[1,4]diazepino[1,2-a]indol-2(3H)-yl)-5-(trifluoromethyl)benzoic acid]
< 50	Cc1cc(OCCCc2c3n(c4c(-c5c(C)nn(C)c5C)c(Cl)ccc24)CCC(C)N(Cc2ccc(C(=O)O)o2)C3=O)cc(C)c1Cl (stereo not shown) [I-126, 5-((8-chloro-1-(3-(4-chloro-3,5-dimethylphenoxy)propyl)-3-methyl-1-oxo-7-(1,3,5-trimethyl-1H-pyrazol-4-yl)-4,5-dihydro-1H-[1,4]diazepino[1,2-a]indol-2(3H)-yl)methyl)furan-2-carboxylic acid]
< 50	Cc1cc(OCCCc2c3n(c4c(-c5c(C)nn(C)c5C)c(Cl)ccc24)CCCN(c2ccc(C(=O)O)c(F)c2)C3=O)cc(C)c1Cl [I-94, 4-(8-chloro-11-(3-(4-chloro-3,5-dimethylphenoxy)propyl)-1-oxo-7-(1,3,5-trimethyl-1H-pyrazol-4-yl)-4,5-dihydro-1H-[1,4]diazepino[1,2-a]indol-2(3H)-yl)-2-fluorobenzoic acid]
< 50	Cc1cc(OCCCc2c3n(c4c(-c5c(C)nn(C)c5C)c(Cl)ccc24)CCC(C)N(Cc2ccc(C(=O)O)cn2)C3=O)cc(C)c1Cl (stereo not shown) [I-124, 6-((8-chloro-11-(3-(4-chloro-3,5-dimethylphenoxy)propyl)-3-methyl-1-oxo-7-(1,3,5-trimethyl-1H-pyrazol-4-yl)-4,5-dihydro-1H-[1,4]diazepino[1,2-a]indol-2(3H)-yl)methyl)nicotinic acid]
< 50	Cc1cc(OCCCc2c3n(c4c(-c5c(C)nn(C)c5C)c(Cl)ccc24)CCCN(c2cc(CO)cc(C(=O)O)c2)C3=O)cc(C)c1Cl [I-224, 3-(8-chloro-11-(3-(4-chloro-3,5-dimethylphenoxy)propyl)-1-oxo-7-(1,3,5-trimethyl-1H-pyrazol-4-yl)-4,5-dihydro-1H-[1,4]diazepino[1,2-a]indol-2(3H)-yl)-5-(hydroxymethyl)benzoic acid]
< 50	Cc1cc(OCCCc2c3n(c4c(-c5c(C)nn(C)c5C)c(Cl)ccc24)CCCN(c2cc(Br)cc(C(=O)O)c2)C3=O)cc(C)c1Cl [I-218, 3-bromo-5-(8-chloro-11-(3-(4-chloro-3,5-dimethylphenoxy)propyl)-1-oxo-7-(1,3,5-trimethyl-1H-pyrazol-4-yl)-4,5-dihydro-1H-[1,4]diazepino[1,2-a]indol-2(3H)-yl)benzoic acid]
< 50	Cc1cc(OCCCc2c3n(c4c(-c5c(C)nn(C)c5C)c(Cl)ccc24)CCCN(c2nn(C)c4cc(C(=O)O)ccc24)C3=O)cc(C)c1Cl [I-375, 3-(8-chloro-11-(3-(4-chloro-3,5-dimethylphenoxy)propyl)-1-oxo-7-(1,3,5-trimethyl-1H-pyrazol-4-yl)-4,5-dihydro-1H-[1,4]diazepino[1,2-a]indol-2(3H)-yl)-1-methyl-1H-indazole-6-carboxylic acid]
< 50	Cc1cc(OCCCc2c(C(=O)Nc3cc(C(=O)O)cc(N4CCOCC4)c3)[nH]c3c(-c4c(C)nn(C)c4C)c(Cl)ccc23)cc(C)c1Cl [I-208, 3-(6-chloro-3-(3-(4-chloro-3,5-dimethylphenoxy)propyl)-7-(1,3,5-trimethyl-1H-pyrazol-4-yl)-1H-indole-2-carboxamido)-5-morpholinobenzoic acid]
< 50	Cc1cc(OCCCc2c3n(c4c(-c5c(C)nn(C)c5C)c(Cl)ccc24)C[C@@H](C)NC3=O)cc(C)c1Cl [I-109, (R)-7-chloro-10-(3-(4-chloro-3,5-dimethylphenoxy)propyl)-3-methyl-6-(1,3,5-trimethyl-1H-pyrazol-4-yl)-3,4-dihydropyrazino[1,2-a]indol-1(2H)-one]
< 50	Cc1cc(OCCCc2c3n(c4c(-c5c(C)nn(C)c5C)c(Cl)ccc24)CCCN(c2cc(C(=O)O)cc(-c4cccn4C)c2)C3=O)cc(C)c1Cl [I-235, 3-(8-chloro-11-(3-(4-chloro-3,5-dimethylphenoxy)propyl)-1-oxo-7-(1,3,5-trimethyl-1H-pyrazol-4-yl)-4,5-dihydro-1H-[1,4]diazepino[1,2-a]indol-2(3H)-yl)-5-(1-methyl-1H-pyrrol-2-yl)benzoic acid]
< 50	Cc1cc(OCCCc2c(C(=O)Nc3cc(C(=O)O)cc(N4CCN(C)CC4)c3)[nH]c3c(-c4c(C)nn(C)c4C)c(Cl)ccc23)cc(C)c1Cl [I-207, 3-(6-chloro-3-(3-(4-chloro-3,5-dimethylphenoxy)propyl)-7-(1,3,5-trimethyl-1H-pyrazol-4-yl)-1H-indole-2-carboxamido)-5-(4-methylpiperazin-1-yl)benzoic acid]
< 50	Cc1cc(OCCCc2c(C(=O)Nc3cncc(C(=O)O)c3)[nH]c3c(-c4c(C)nn(C)c4C)cccc23)cc(C)c1Cl [I-186, 5-(3-(3-(4-chloro-3,5-dimethylphenoxy)propyl)-7-(1,3,5-trimethyl-1H-pyrazol-4-yl)-1H-indole-2-carboxamido)nicotinic acid]

same assay, conditions: Table 2; Ki bins given in μM; FITC-Bak or FITC-Bim peptide competition; Ki converted from IC50; read-out: Ki for Inhibition of Mcl-1

Compound	Ki [nM]
Cc1cc(OCCCc2c(C(=O)NCCc3c(C)n(C)c4ccccc34)[nH]c3ccccc23)cc(C)c1Cl [I-44, 3-(3-(4-chloro-3,5-dimethylphenoxy)propyl)-N-(2-(1,2-dimethyl-1H-indol-3-yl)ethyl)-1H-indole-2-carboxamide]	1000 to 9990
Cc1cc(OCCCc2c(C(=O)NCc3cc(C(=O)NC4Cc5ccccc5C4)cc(NC4Cc5ccccc5C4)n3)[nH]c3c(-c4c(C)nn(C)c4C)cccc23)cc(C)c1Cl [I-278, 3-(3-(4-chloro-3,5-dimethylphenoxy)propyl)-N-((6-((2,3-dihydro-1H-inden-2-yl)amino)-4-((2,3-dihydro-1H-inden-2-yl)carbamoyl)pyridin-2-yl)methyl)-7-(1,3,5-trimethyl-1H-pyrazol-4-yl)-1H-indole-2-carboxamide]	1000 to 9990
